In patent publication US6242494A, “Substituted β-amino acid inhibitors of methionine aminopeptidase-2” (Abbott Laboratories, priority 1999, dated 2001):
pIC50: −log10 of the molar value. Counter-ions that a name gives are not always drawn.

target: T1, methionine aminopeptidase-2 (MetAP2) (Homo sapiens, UniProt P50579); assay: Inhibition of MetAP2 enzyme activity (96-well, Met-Ala-Ser substrate, L-amino acid oxidase/peroxidase/ortho-dianisidine, 450 nm); assay type: biochemical; conditions: IC50, recombinant MetAP2 4 μg/mL, pH 7.4, Met-Ala-Ser substrate, 20 minutes
T1 construct: made in house; host or cells: insect cells, baculovirus system (secreted, purified from culture supernatant)
T1 sequence (P50579 whole entry): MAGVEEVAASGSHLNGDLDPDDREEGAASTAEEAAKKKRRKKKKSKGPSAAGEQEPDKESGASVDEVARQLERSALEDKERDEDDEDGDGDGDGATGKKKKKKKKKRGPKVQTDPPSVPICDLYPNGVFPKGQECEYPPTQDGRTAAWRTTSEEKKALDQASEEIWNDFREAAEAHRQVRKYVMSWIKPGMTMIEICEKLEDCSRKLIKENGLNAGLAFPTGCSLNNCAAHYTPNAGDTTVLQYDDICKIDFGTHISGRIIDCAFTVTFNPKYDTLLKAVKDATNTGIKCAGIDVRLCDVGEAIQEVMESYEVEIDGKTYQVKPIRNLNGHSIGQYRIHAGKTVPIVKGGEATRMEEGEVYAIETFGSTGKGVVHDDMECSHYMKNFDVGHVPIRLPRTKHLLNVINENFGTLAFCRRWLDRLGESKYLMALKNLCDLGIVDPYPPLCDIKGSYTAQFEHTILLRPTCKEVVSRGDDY
Procedure: The ability of compounds of the present invention to inhibit methionine aminopeptidase 2 was evaluated using the following assay.
Assays for MetAP2 enzyme activity and MetAP2 inhibition were performed in 96-well microtiter plates. Compounds to be tested for MetAP2 inhibition were dissolved in dimethyl-sulfoxide at 10 mM and diluted ten-fold in assay buffer ([…], pH 7.4, 100 mM NaCl). Ten microliters of solution of each compound to be tested for inhibition were introduced into each cell of the plate, with each compound being tested in triplicate.
The absorbence at 450 nanometers was measured every 20 seconds over a period of twenty minutes using an automaic plate reader (Molecular Devices, CA, USA). The Vmax in mOD/min, calculated for each well was used to represent MetAP2 activity. The IC50 for each inhibitor was obtained by plotting the remaining MetAP2 activity versus inhibitor concentration.

Compound	pIC50
Cc1ccc([N+](=O)[O-])cc1NC(=O)C(O)[C@H](N)CC1CCCCC1 (mixture of isomers) [Example 184, (2RS,3R)-3-amino-4-cyclohexyl-2-hydroxy-N-(2-methyl-5-nitrophenyl)butanamide hydrochloride]	6.37
N[C@H](CC1CCCCC1)C(O)C(=O)Nc1ccc(Oc2ccccc2)cc1 (mixture of isomers) [Example 185, (2RS,3R)-3-amino-4-cyclohexyl-2-hydroxy-N-(4-phenoxyphenyl)butanamide hydrochloride]	5.74
COc1ccc(CNC(=O)C(O)[C@H](N)CC2CCCCC2)cc1 (mixture of isomers) [Example 186, (2RS,3R)-3-amino-4-cyclohexyl-2-hydroxy-N-(4-methoxybenzyl)butanamide hydrochloride]	5.96
Cc1ccc(CNC(=O)C(O)[C@H](N)CC2CCCCC2)cc1 (mixture of isomers) [Example 187, (2RS,3R)-3-amino-4-cyclohexyl-2-hydroxy-N-(4-methylbenzyl)butanamide hydrochloride]	5.92
N[C@H](CC1CCCCC1)C(O)C(=O)NCc1cccc(Cl)c1 (mixture of isomers) [Example 188, (2RS,3R)-3-amino-N-(3-chlorobenzyl)-4-cyclohexyl-2-hydroxybutanamide hydrochloride]	5.80
COc1cccc(CNC(=O)C(O)[C@H](N)CC2CCCCC2)c1 (mixture of isomers) [Example 189, (2RS,3R)-3-amino-4-cyclohexyl-2-hydroxy-N-(3-methoxybenzyl)butanamide hydrochloride]	5.82
N[C@H](CC1CCCCC1)C(O)C(=O)NCc1ccc(Br)cc1 (mixture of isomers) [Example 190, (2RS,3R)-3-amino-N-(4-bromobenzyl)-4-cyclohexyl-2-hydroxybutanamide hydrochloride]	5.89
Cc1cccc(CNC(=O)C(O)[C@H](N)CC2CCCCC2)c1 (mixture of isomers) [Example 191, (2RS,3R)-3-amino-4-cyclohexyl-2hydroxy-N-(3-methylbenzyl)butanamide hydrochloride]	5.60
N[C@H](CC1CCCCC1)C(O)C(=O)NCCc1ccccc1 (mixture of isomers) [Example 192, (2RS,3R)-3-amino-4-cyclohexyl-2-hydroxy-N-phenethylbutanamide hydrochloride]	5.92
N[C@H](CC1CCCCC1)C(O)C(=O)NCc1ccc(Cl)cc1 (mixture of isomers) [Example 193, (2RS,3R)-3-amino-N-(4-chlorobenzyl)-4-cyclohexyl-2-hydroxybutanamide hydrochloride]	5.60
Cc1ccc(CCNC(=O)C(O)[C@H](N)CC2CCCCC2)cc1 (mixture of isomers) [Example 194, (2RS,3R)-3-amino-4-cyclohexyl-2-hydroxy-N-(4-methylphenethyl)butanamide hydrochloride]	5.85
COc1ccc(CCNC(=O)C(O)[C@H](N)CC2CCCCC2)cc1 (mixture of isomers) [Example 195, (2RS,3R)-3-amino-4-cyclohexyl-2-hydroxy-N-(4-methoxyphenethyl)butanamide hydrochloride]	5.89
COc1cccc(CCNC(=O)C(O)[C@H](N)CC2CCCCC2)c1 (mixture of isomers) [Example 196, (2RS,3R)-3-amino-4-cyclohexyl-2-hydroxy-N-(3-methoxyphenethyl)butanamide hydrochloride]	6.09
COc1ccccc1CCNC(=O)C(O)[C@H](N)CC1CCCCC1 (mixture of isomers) [Example 197, (2RS,3R)-3-amino-4-cyclohexyl-2-hydroxy-N-(2-methoxyphenethyl)butanamide hydrochloride]	6.24
N[C@H](CC1CCCCC1)C(O)C(=O)NCCc1ccc(Cl)cc1 (mixture of isomers) [Example 198, (2RS,3R)-3-amino-N-(4-chlorophenethyl)-4-cyclohexyl-2-hydroxybutanamide hydrochloride]	6.08
N[C@H](CC1CCCCC1)C(O)C(=O)NCCc1cccc(Cl)c1 (mixture of isomers) [Example 199, (2RS,3R)-3-amino-N-(3-chlorophenethyl)-4-cyclohexyl-2-hydroxybutanamide hydrochloride]	6.00
N[C@H](CC1CCCCC1)C(O)C(=O)NCCc1cccc(C(F)(F)F)c1 (mixture of isomers) [Example 200, (2RS,3R)-3-amino-4-cyclohexyl-2-hydroxy-N-(3-(trifluoromethyl)phenethyl)butanamide Hydrochloride]	5.82
N[C@H](CC1CCCCC1)C(O)C(=O)NCCc1ccc(Br)cc1 (mixture of isomers) [Example 201, (2RS,3R)-3-amino-N-(4-bromophenethyl)-4-cyclohexyl-2-hydroxybutanamide Hydrochloride]	6.15

Compound	pIC50
N[C@H](CC1CCCCC1)C(O)C(=O)NC12CC3CC(CC(C3)C1)C2 (mixture of isomers) [Example 202, (2RS,3R)-N-(1-adamantyl)-3-amino-4-cyclohexyl-2-hydroxybutanamide Hydrochloride]	5.08
N[C@H](CC1CCCCC1)C(O)C(=O)NC1C2CC3CC(C2)CC1C3 (mixture of isomers) [Example 203, (2RS,3R)-N-(2-adamantyl)-3-amino-4-cyclohexyl-2-hydroxybutanamide Hydrochloride]	5.31
N[C@H](CC1CCCCC1)C(O)C(=O)NC1CCCCCC1 (mixture of isomers) [Example 204, (2RS,3R)-3-amino-N-cycloheptyl-4-cyclohexyl-2-hydroxybutanamide Hydrochloride]	5.42
N[C@H](CC1CCCCC1)C(O)C(=O)NCC1CCCCC1 (mixture of isomers) [Example 205, (2RS,3R)-3-amino-4-cyclohexyl-N-(cyclohexylmethyl)-2-hydroxybutanamide Hydrochloride]	5.60
N[C@H](CC1CCCCC1)C(O)C(=O)NC1CCCCC1 (mixture of isomers) [Example 206, (2RS,3R)-3-amino-N,4-dicyclohexyl-2-hydroxybutanamide Hydrochloride]	5.00
N[C@H](CC1CCCCC1)C(O)C(=O)NC1CCCC1 (mixture of isomers) [Example 207, (2RS,3R)-3-amino-4-cyclohexyl-N-cyclopentyl-2-hydroxybutanamide Hydrochloride]	5.39
N[C@H](CC1CCCCC1)C(O)C(=O)NC1CCC1 (mixture of isomers) [Example 208, (2RS,3R)-3-amino-N-cyclobutyl-4-cyclohexyl-2-hydroxybutanamide Hydrochloride]	5.57
CC(CCc1ccccc1)NC(=O)C(O)[C@H](N)CC1CCCCC1 (mixture of isomers) [Example 209, (2RS,3R)-3-amino-4-cyclohexyl-2-hydroxy-N-(1-methyl-3-phenylpropyl)butanamide Hydrochloride]	4.85
CC(Cc1cccc(C(F)(F)F)c1)NC(=O)C(O)[C@H](N)CC1CCCCC1 (mixture of isomers) [Example 210, (2RS,3R)-3-amino-4-cyclohexyl-2-hydroxy-N-(1-methyl-2-(3-(trifluoromethyl)phenyl)ethyl)butanamide Hydrochloride]	5.64
CCCCCC(C)NC(=O)C(O)[C@H](N)CC1CCCCC1 (mixture of isomers) [Example 212, (2RS,3R)-3-amino-4-cyclohexyl-2-hydroxy-N-(1-methylhexyl)butanamide Hydrochloride]	5.77
CC(C)OCCCNC(=O)C(O)[C@H](N)CC1CCCCC1 (mixture of isomers) [Example 213, (2RS,3R)-3-amino-4-cyclohexyl-2-hydroxy-N-(3-isopropoxypropyl)butanamide Hydrochloride]	5.59
CC(C)COCCCNC(=O)C(O)[C@H](N)CC1CCCCC1 (mixture of isomers) [Example 214, (2RS,3R)-3-amino-4-cyclohexyl-2-hydroxy-N-(3-isobutoxypropyl)butanamide Hydrochloride]	5.55
N[C@H](CC1CCCCC1)C(O)C(=O)Nc1ccc(N2CCOCC2)cc1 (mixture of isomers) [Example 215, (2RS,3R)-3-amino-4-cyclohexyl-2-hydroxy-N-(4-(4-morpholinyl)phenyl)butanamide Hydrochloride]	5.89
N[C@H](CC1CCCCC1)C(O)C(=O)NCCC(c1ccccc1)c1ccccc1 (mixture of isomers) [Example 216, (2RS,3R)-3-amino-4-cyclohexyl-N-(3,3-diphenylpropyl)-2-hydroxybutanamide Hydrochloride]	5.74
CC(C)CCC(C)NC(=O)C(O)[C@H](N)CC1CCCCC1 (mixture of isomers) [Example 217, (2RS,3R)-3-amino-4-cyclohexyl-N-(1,4-dimethylpentyl)-2-hydroxybutanamide Hydrochloride]	5.74
C[C@@H](c1cccc2ccccc12)N(C)C(=O)C(O)[C@H](N)CC1CCCCC1 (mixture of isomers) [Example 219, (2RS,3R)-3-amino-4-cyclohexyl-2-hydroxy-N-methyl-N-((1S)-1-(1-naphthyl)ethyl)butanamide Hydrochloride]	5.74
COc1ccc(C(F)(F)F)cc1NC(=O)C(O)[C@H](N)CC1CCCCC1 (mixture of isomers) [Example 220, (2RS,3R)-3-amino-4-cyclohexyl-2-hydroxy-N-(2-methoxy-5-(trifluoromethyl)phenyl)butanamide Hydrochloride]	5.26
